{"source": "patent US20250099427A1", "about": "“Drug and Method of Treating or Preventing Renal Disease Using Drug” (Showa University, priority 2018, published 2025)", "assay_type_in_all_cases": "in vivo, mouse", "key": {"[1]": {"tested_on": "Acute Renal Failure Animal Model", "experiment": "Test using acute renal failure animal model (renal ischemia and reperfusion), renal function parameters", "settings": "for Cer: creatinine clearance; for FENa: fractional excretion of sodium; for KW: kidney weight", "text": "A male ddY strain mouse (30 g) was used as an experimental animal. Under anesthesia with isoflurane, the right flank was incised about 2 cm to expose the kidney. After ligating the renal arteries and veins and the ureter, the right kidney was isolated.\nA recovery period of 2 weeks was given, and then an acute renal failure mouse model was produced. Under anesthesia with isoflurane, the left abdomen was incised about 3 cm to expose the left kidney, and the fat around the renal arteries and veins was removed. The blood flow in the left renal arteries and veins was blocked using an atraumatic clip, and the kidney was left in ischemia for 45 minutes. The blood flow was then reperfused by removing the atraumatic clip, the kidney was returned to the abdominal cavity, and the flank was sutured. Mice similarly subjected to the steps other than the ischemia and reperfusion steps using the atraumatic clip were designated as a sham group (eight mice).\nAfter 15 minutes of the initiation of ischemia, the vehicle, SMTP-7, SMTP-27, SMTP-44D, and edaravone were continuously administered to the femoral vein for 30 minutes.\n24 hours after the ischemia and reperfusion processes, urine was collected for 24 hours using a metabolic cage, and the urinary output (UF; μL/min/kg) was measured. During collecting urine, only water was freely given. After urine collection, the body weight of each mouse was measured, and blood was collected from the abdominal aorta under anesthesia with isoflurane. After blood collection, the left kidney was isolated and the fat was removed in physiological saline. The kidney weight (KW; mg/g) was measured, and then the kidney was fixed in a 10% neutral buffered formalin solution for Hematoxylin Eosin (HE) staining.\nThe collected blood was centrifuged at 800×g for 15 minutes at 25° C. to collect serum. Further, the urine collected using a metabolic cage was also used to evaluate renal function. In order to evaluate parameters in the serum, blood urea nitrogen (BUN; mg/dL) was measured using a QuantiChrom Urea Assay Kit (Funakoshi Co., Ltd.). Serum creatinine concentration (Scr; mg/dL) and urinary creatinine concentration (Ucr; mg/dL) were measured using LabAssay (trademark) Creatinine (manufactured by Wako Pure Chemical Industries, Ltd.), and creatinine clearance (Ccr; mL/min/kg) was calculated. The concentrations of sodium in the serum and urine were measured using Fuji Dry Chem 7000 (manufactured by FUJIFILM Corporation), and fractional excretion of sodium (FENa; %) was calculated. Urinary albumin concentration (Ualb; mg/hr/kg) was measured using Albwel M (manufactured by Cosmo Bio Co., Ltd.).\n(§1) In Table 11, the experimental results are expressed in mean±standard error in eight mice in each group. For comparison among multiple groups, firstly, one-way analysis of variance (ANOVA) was conducted, and then a Bonferroni test was conducted, if significant difference was recognized. Significant difference was recognized with a significance level of less than 5% (P<0.05)."}, "[2]": {"tested_on": "Acute Renal Failure Animal Model", "experiment": "Acute renal failure animal model, pathological tissue specimen (HE staining) lesion scores", "settings": "3 mg/kg", "method": "24 hours after the ischemia and reperfusion processes, urine was collected for 24 hours using a metabolic cage, measurement of body weight was conducted, and blood was collected. Thereafter, nephrectomy was conducted, and formalin-fixed kidney was permeated with paraffin using an automatic embedding device to produce a paraffin block. The paraffin block was sliced into 3 μm sections with a microtome, and placed on a slide glass. Then, the sections were stretched with a paraffin stretcher at 52° C., and sufficiently dried overnight in a paraffin melter at 37° C. After deparaffinization and washing with water, the sections were stained with a Mayer's hematoxylin staining solution for 1 minute and washed with running water for 15 minutes. Thereafter, the sections were stained with an eosin staining solution for 45 seconds, and dehydrated with 80% to 100% ethanol, followed by clearing with xylene and sealing with marinol. Each specimen was examined microscopically at a magnification of 50 using an optical microscope. With respect to tubular dilatation, tubular necrosis, and tubular casts in the cortex, outer zone of outer medulla, and inner zone of outer medulla, the percentage of lesions in each site was evaluated according to the following criteria.\nas §1, with “12,” for “11,”"}, "[3]": {"tested_on": "Chronic Renal Failure Animal Model", "experiment": "Test using chronic renal failure animal model (nephrectomy + acetic acid application), renal function parameters", "settings": "Table 10 experiment (edaravone instead of SMTP-7); 30 mg/kg, same regimen as the SMTP-7 30 mg/kg group", "method": "A male ddY strain mouse (body weight: 30 g to 40 g) was used. Under anesthesia with isoflurane, the right flank of the mouse was incised, the renal arteries and veins were ligated, and then the right kidney was isolated. After suturing, acrinol was applied to the suture site as a disinfection treatment, and enrofloxacin was subcutaneously administered at 5 mg/kg as a preventive measure against infection, and acetaminophen was subcutaneously administered at 75 mg/kg as an analgesic treatment. After a recovery period of 3 to 4 weeks, the left abdomen of the mouse was incised, 100% acetic acid was applied to both sides of the kidney 10 times. This was defined as one course, and two courses were conducted at 5 minute intervals. After suturing, postoperative treatment was conducted in the same manner as in the removal of one of the kidneys. Considering the effect of surgery, a sham group to which acetic acid was not applied was provided.\n4 weeks after the application of acetic acid, SMTP-7 was administered at a dose of 10 mg/kg or 30 mg/kg. The administration was carried out three times a week for 8 consecutive weeks by intraperitoneal administration. In addition, physiological saline was similarly administered to the sham group (without acetic acid application) and the Control group (with acetic acid application).\n12 weeks after the application of acetic acid, urine was collected for 24 hours using a metabolic cage, and the urinary output was measured. During collecting urine, water was freely given. After urine collection, blood was collected from the descending aorta, the collected blood was centrifuged at 3000 rpm for 15 minutes, serum was separated, and BUN (urea nitrogen) and sCr (serum creatinine value) were measured. Further, protein and creatinine in the urine were also measured to calculate creatinine clearance (Ccr). BUN was measured using Urea B-test Wako (manufactured by Wako Pure Chemical Industries, Ltd.) and a QuantiChrom Urea Assay Kit (manufactured by Funakoshi Co., Ltd.), sCr was measured using Lab Assay Creatinine (manufactured by Wako Pure Chemical Industries, Ltd.), and urinary protein was measured using a BCA Protein assay kit (Thermo Fisher Scientific).\nRenal function was evaluated by measuring BUN, sCr, urinary output, and urinary protein. In addition, urinary creatinine was measured to calculate creatinine clearance (Ccr).\nIn Table 9, the experimental results are expressed in mean±standard error. With reference to statistically significant difference, an unpaired test between two groups (Student's t-test) was conducted for comparison between two groups, and one-way analysis of variance was conducted and then a Dunnett test was conducted for comparison among multiple groups. In all cases, a significance level of 5% or less (P<0.05) was regarded as significant difference.\nThe experiment and evaluation were carried out in the same manner as in the SMTP-7 (30 mg/kg) administration group, except that edaravone (30 mg/kg) was administered instead of SMTP-7 in the SMTP-7 (30 mg/kg) administration group."}, "[4]": {"settings": "30 mg/kg continuous femoral vein 30 min from 15 min after start of 45 min ischemia, mean±SE, 8 mice"}, "[5]": {"settings": "30 mg/kg, acute renal failure model"}, "[6]": {"settings": "30 mg/kg continuous femoral vein 30 min from 15 min after start of 45 min ischemia, mean±SE, 8 mice, 30 mg/kg"}, "[7]": {"settings": "urinary albumin, 30 mg/kg continuous femoral vein 30 min from 15 min after start of 45 min ischemia, mean±SE, 8 mice"}, "[8]": {"settings": "urinary output, 30 mg/kg continuous femoral vein 30 min from 15 min after start of 45 min ischemia, mean±SE, 8 mice"}, "[9]": {"settings": "points 0 (no lesion) to 4 (severe, 50% or more), mean±SE, 8 mice"}, "[10]": {"settings": "3 mg/kg continuous femoral vein 30 min from 15 min after start of 45 min ischemia, mean±SE, 8 mice"}, "[11]": {"settings": "3 mg/kg, acute renal failure model"}, "[12]": {"settings": "3 mg/kg continuous femoral vein 30 min from 15 min after start of 45 min ischemia, mean±SE, 8 mice, 3 mg/kg"}}}
{"smiles": "CC(C)=CCC/C(C)=C/CCC1(C)Oc2c(c(O)cc3c2CN(c2cc(C(=O)O)ccc2O)C3=O)CC1O", "note": "(stereo not drawn) [SMTP-27]", "values": [{"measurement": "BUN", "setting": "[1]; [4]", "value": "59.7 ± 10.5", "unit": "mg/dL"}, {"measurement": "Scr", "setting": "[1]; [4]", "value": "0.5 ± 0.0", "unit": "mg/dL"}, {"measurement": "UF", "setting": "[1]; [5]", "value": "4.67 ± 0.984", "unit": "mL/h/kg"}, {"measurement": "Ualb", "setting": "[1]; [5]", "value": "2.0 ± 0.4", "unit": "mg/h/kg"}, {"measurement": "Cer", "setting": "[1]; [6]", "value": "150 ± 6", "unit": "mL/h/kg"}, {"measurement": "FENa", "setting": "[1]; [6]", "value": "0.8±0.1", "unit": "%"}, {"measurement": "KW", "setting": "[1]; [6]", "value": "13.8 ± 0.7", "unit": "mg/g"}, {"measurement": "Ualb", "setting": "[1]; [7]", "value": "2 ± 0.4", "unit": "mg/h/kg"}, {"measurement": "UF", "setting": "[1]; [8]", "value": "4.67 ± 0.984", "unit": "mL/h/kg"}]}
{"smiles": "CC(C)=CCCC(C)=CCCC1(C)Oc2c(c(O)cc3c2CN(C(C(=O)O)c2ccc(O)cc2)C3=O)CC1O", "note": "(stereo not drawn) [SMTP-44D]", "values": [{"measurement": "BUN", "setting": "[1]; [4]", "value": "55.7 ± 14.2", "unit": "mg/dL"}, {"measurement": "Scr", "setting": "[1]; [4]", "value": "0.6 ± 0.1", "unit": "mg/dL"}, {"measurement": "UF", "setting": "[1]; [5]", "value": "6.192 ± 2.008", "unit": "mL/h/kg"}, {"measurement": "Ualb", "setting": "[1]; [5]", "value": "1.3 ± 0.3", "unit": "mg/h/kg"}, {"measurement": "Cer", "setting": "[1]; [6]", "value": "138 ± 24", "unit": "mL/h/kg"}, {"measurement": "FENa", "setting": "[1]; [6]", "value": "1.2±0.1", "unit": "%"}, {"measurement": "KW", "setting": "[1]; [6]", "value": "12.3 ± 1.2", "unit": "mg/g"}, {"measurement": "Ualb", "setting": "[1]; [7]", "value": "1.3 ± 0.3", "unit": "mg/h/kg"}, {"measurement": "UF", "setting": "[1]; [8]", "value": "6.19 ± 2.02", "unit": "mL/h/kg"}]}
{"smiles": "CC1=NN(c2ccccc2)C(=O)C1", "note": "[edaravone, reference compound]", "values": [{"measurement": "Histopathological changes (lesion changes), result in words", "setting": "[2]; compared to control group", "value": "lesion changes were significantly improved only in tubular necrosis and tubular casts in the outer zone of outer medulla of the kidney and tubular casts in the inner zone of outer medulla"}, {"measurement": "Tubular cast score, Cortex", "setting": "[2]; [9]", "value": "0.9 ± 0.1"}, {"measurement": "Tubular cast score, Inner zone of outer medulla", "setting": "[2]; [9]", "value": "1.5 ± 0.4"}, {"measurement": "Tubular cast score, Outer zone of outer medulla", "setting": "[2]; [9]", "value": "1.0 ± 0.2"}, {"measurement": "Tubular dilatation score, Cortex", "setting": "[2]; [9]", "value": "3.0 ± 0.5"}, {"measurement": "Tubular dilatation score, Inner zone of outer medulla", "setting": "[2]; [9]", "value": "2.4 ± 0.5"}, {"measurement": "Tubular dilatation score, Outer zone of outer medulla", "setting": "[2]; [9]", "value": "2.4 ± 0.5"}, {"measurement": "Tubular necrosis score, Cortex", "setting": "[2]; [9]", "value": "0.9 ± 0.1"}, {"measurement": "Tubular necrosis score, Inner zone of outer medulla", "setting": "[2]; [9]", "value": "0.9 ± 0.1"}, {"measurement": "Tubular necrosis score, Outer zone of outer medulla", "setting": "[2]; [9]", "value": "0.9 ± 0.1"}, {"measurement": "BUN", "setting": "[1]; [10]", "value": "61.1 ± 5.9", "unit": "mg/dL"}, {"measurement": "Scr", "setting": "[1]; [10]", "value": "0.5 ± 0.0", "unit": "mg/dL"}, {"measurement": "UF", "setting": "[1]; [11]", "value": "3.32 ± 0.726", "unit": "mL/h/kg"}, {"measurement": "Ualb", "setting": "[1]; [11]", "value": "0.9 ± 0.2", "unit": "mg/h/kg"}, {"measurement": "Cer", "setting": "[1]; [12]", "value": "126 ± 12", "unit": "mL/h/kg"}, {"measurement": "FENa", "setting": "[1]; [12]", "value": "1.0±0.1", "unit": "%"}, {"measurement": "KW", "setting": "[1]; [12]", "value": "13.4 ± 0.6", "unit": "mg/g"}, {"measurement": "Ualb", "setting": "[1]; urinary albumin, 3 mg/kg continuous femoral vein 30 min from 15 min after start of 45 min ischemia, mean±SE, 8 mice", "value": "0.9 ± 0.2", "unit": "mg/h/kg"}, {"measurement": "UF", "setting": "[1]; urinary output, 3 mg/kg continuous femoral vein 30 min from 15 min after start of 45 min ischemia, mean±SE, 8 mice", "value": "3.32 ± 0.726", "unit": "mL/h/kg"}, {"measurement": "Urinary output", "setting": "[3]", "value": "3.77 ± 0.704", "unit": "mL/h/kg"}, {"measurement": "Urinary protein", "setting": "[3]", "value": "553 ± 109", "unit": "mg/kg/day"}]}
